Experimental data published in paper PMC10721329, “Quisinostat is a brain-penetrant radiosensitizer in glioblastoma” (JCI Insight, 2023).
Values joined by “and” are separate entries in the source; they are usually repeats but may differ in a detail not shown here. Equal values may be shown once.

Legend:
[1] = tested on: GB82 patient-derived GSC line; assay: CellTiter-Glo dose-response cell viability assay; assay type: cell-based, human
Protocol: QST (JNJ-26481585) is a second-generation hydroxamic acid harboring remarkable selectivity toward class I HDACs, with a biochemical IC50 of 0.1 nM for HDAC1 ([13]). […] To determine the cytotoxic effects of QST, we performed a dose-titration cell viability assay in 7 patient-derived GSC lines (BT145, GB187, GB239, GB282, GB71, GB82, and GB126) and 1 long-term serum-grown human GBM cell line (U87). Because GBMs display a high degree of intratumoral heterogeneity, we used GSCs derived from both primary and recurrent GBMs that harbored distinct genetic mutations or aberrations, growth rates, MGMT promoter methylation status, and gene expression profiles (Supplemental Figure 1; supplemental material available online with this article; https://doi.org/10.1172/jci.insight.167081DS1). Cell lines were treated with various concentrations of QST (10–1000 nM), and cell viability was measured 3–5 days later (Figure 1, A and B). […] Treatment with QST at the IC50 induced significant inhibition of proliferation (Ki67) and an increase in programmed cell death (cleaved caspase 3) in 2 different GSC lines (Figure 1, C and D). Additional analyses confirmed that QST induces apoptosis after short-term treatment through increased staining of the apoptotic marker annexin V (Figure 2A) and cell cycle arrest (in G2- or S-phase; Figure 2B and Supplemental Figure 1B).
(§1) GSCs were seeded in laminin-coated tissue culture–treated 96-well plates (clear bottom, white plate; Corning) at a density of 1000–5000 cells per well (cell line dependent) in GSC media. U87-MG were seeded using their normal growth conditions without laminin (10% bovine calf serum in DMEM). All cells were incubated at 37°C and allowed to adhere overnight. The next day, cells were treated with incremental concentrations of QST (Selleckchem; 0, 10, 25, 50, 100, 250, 500, and 1000 nM) diluted in media. Cells treated without QST were treated with DMSO diluted in media. Following treatment with QST, cells were grown for 3 to 5 days (cell line dependent), and cell viability was measured and quantified. All cell viability measurements were performed using the CellTiter-Glo luminescent cell viability assay (Promega) following the manufacturer’s instructions. For the sulforhodamine B colorimetric assay for cytotoxicity, the protocol was performed as described elsewhere ([33]). All cell viability results represent the mean of at least 3 biological replicates, each containing 3 technical replicates.

[2] = Body weight / tolerability in flank tumor study; assay type: in vivo; set-up: weight of flank tumor mice: unit not given here; conditions: for weight of flank tumor mice: individual mice
Protocol: We next examined whether QST treatment alone or in combination with IR would be effective in slowing tumor growth in a flank model of GBM (U87). Tumor-bearing mice receiving IR were treated with 2-Gy fractions on Monday, Wednesday, and Friday (MWF) 2 hours after dosing with either vehicle solution or QST (10 mg/kg), for a total dose of 6 Gy. Following completion of IR, mice continued to receive vehicle or QST until the tumors reached the maximum volume threshold (Figure 5C). […] The mean tumor volume in mice with combination treatment was approximately 4.5-fold less than that in vehicle-treated mice at study completion (Figure 5D). […]
treated with 2 Gy of ionizing radiation on MWF for a total 6 Gy (3 doses). Ionizing radiation was administered with the RS2000 series biological research irradiator (Rad Source Technologies).
Treatment of Flank-Implanted Mice with QST and/or Radiation
Implanted flank tumors were allowed to grow until the tumor size reached 100 mm3 volume. Mice were randomized into groups before treatment and underwent treatment on MWF for the entire duration of the experiment until the tumor volumes exceeded 2000 mm3. Treatment groups included vehicle (50% PEG-300), QST alone (10 mg/kg), flank IR treatment with vehicle (2 Gy), and flank IR treatment (2 Gy) with QST (10 mg/kg). For mice receiving IR treatment with or without QST, mice were treated with 2 Gy on MWF for a total 6 Gy during the first week of treatment. QST was administered to mice through intraperitoneal injections 2 hours before flank tumor radiation treatment. Upon completion of the radiation regimen, IR-treated mice subsequently received QST or vehicle alone for the rest of the experiment. Tumor growth and treatment response were monitored by manually measuring the tumor area twice per week starting at 13 days after implantation. Upon reaching the tumor volume threshold (2000 mm3), mice were sacrificed, and plasma and tissue samples were harvested for PD and PK analyses 2 hours after treatment with a final dose of QST (10 mg/kg). […]

GB126 cells = assay: Cell cycle analysis, propidium iodide flow cytometry; assay type: cell-based, human
Protocol: (§2) For cell cycle analysis following short -term DMSO or QST treatment in GSC cultures, approximately 1 million cells were harvested, washed in cold 1× PBS once, and fixed with 3–4 mL of ice cold 70% ethanol, added dropwise while vortexing. Cells were fixed on ice for 30 minutes and washed twice with 1× PBS. Cells were then resuspended in 500 μL of propidium iodide/RNAse staining buffer (BD Biosciences, 550825) for 15 minutes at room temperature before analysis. Data from all the samples were obtained using a Fortessa flow cytometer (BD Biosciences) and analyzed using the FlowJo software (TreeStar). Cell cycle analysis was performed in triplicate for all cell lines.

BT145 cells = assay: as above; assay type: cell-based, human
Protocol: as §2

[3] = tested on: primary human astrocytes (NHA); assay: Dose-response cell viability assay in normal astrocytes; assay type: cell-based; conditions: for Cell viability (fraction of DMSO control): NHA, 3 days
Protocol: as §1
(§3) Supplemental Figure 5. QST induces cell death in tumor tissue but not surrounding normal
(§4) brain tissue in vivo. (A) Dose-response curves with QST (10–1000 nM) in primary human
(§5) astrocytes. Cell viability 3 days after treatment with QST. […]

[4] = as above; assay type: cell-based, human; conditions: human, primary human astrocytes (NHA), NHA, 3 days, read-out: Cell viability (fraction of DMSO control)
Protocol: as §1, §3, §4, §5

[5] = QST at IC50, 24 hours, replicates

Compound: Cn1cc(CNCC2CCN(c3ncc(C(=O)NO)cn3)CC2)c2ccccc21 [QST, quisinostat]
- IC50 ([1]; Homo sapiens, 3-5 days): 65 nM
- viability at 0.01 µM ([1]; Homo sapiens, QST 10 nM (log[nM] 1), read-out: Cell viability (fraction of DMSO control)): 78.8%
- viability at 0.025 µM ([1]; Homo sapiens, QST 25 nM (log[nM] 1.39794), read-out: Cell viability (fraction of DMSO control)): 77.1%
- viability at 0.05 µM ([1]; Homo sapiens, QST 50 nM (log[nM] 1.69897), read-out: Cell viability (fraction of DMSO control)): 66.9%
- viability at 0.1 µM ([1]; Homo sapiens, QST 100 nM (log[nM] 2), read-out: Cell viability (fraction of DMSO control)): 51.1%
- viability at 0.25 µM ([1]; Homo sapiens, QST 250 nM (log[nM] 2.39794), read-out: Cell viability (fraction of DMSO control)): 37.7%
- viability at 0.5 µM ([1]; Homo sapiens, QST 500 nM (log[nM] 2.69897), read-out: Cell viability (fraction of DMSO control)): 30.8%
- viability at 1 µM ([1]; Homo sapiens, QST 1000 nM (log[nM] 3), read-out: Cell viability (fraction of DMSO control)): 26.5%
- Cell viability (fraction of DMSO control) ([1]; QST 10 nM (log[nM] 1)): 0.7668 and 0.8052
- Cell viability (fraction of DMSO control) ([1]; QST 25 nM (log[nM] 1.39794)): 0.6655 and 0.6833
- Cell viability (fraction of DMSO control) ([1]; QST 50 nM (log[nM] 1.69897)): 0.651 and 0.6783
- Cell viability (fraction of DMSO control) ([1]; QST 100 nM (log[nM] 2)): 0.4804 and 0.526
- Cell viability (fraction of DMSO control) ([1]; QST 250 nM (log[nM] 2.39794)): 0.3237 and 0.3695
- Cell viability (fraction of DMSO control) ([1]; QST 500 nM (log[nM] 2.69897)): 0.2733 and 0.2932
- Cell viability (fraction of DMSO control) ([1]; QST 1000 nM (log[nM] 3)): 0.2807 and 0.2449
- tolerability (mean weights) ([2]; 10 mg/kg IP MWF, alone and in combination with IR, flank tumor study): well tolerated
- weight of flank tumor mice ([2]; day 13 post-injection): 29.8
- weight of flank tumor mice ([2]; day 22 post-injection): 29.9 (2×) and 27.3 and 29.1 and 26 (2×) and 31.1 and 29.8 and 28 and 28.9
- Cell Cycle Phase, G1 (GB126 cells; [5]): 37.77 and 45.07 and 43.79
- Cell Cycle Phase, G2 (GB126 cells; [5]): 7.41 and 0 and 1.63
- Cell Cycle Phase, S (GB126 cells; [5]): 54.82 and 54.93 and 54.58
- Mean proportion of cells in G1 (GB126 cells; QST, 24 hours): 42%
- Mean proportion of cells in G2 (GB126 cells; QST, 24 hours): 3%
- Mean proportion of cells in S (GB126 cells; QST, 24 hours): 55%
- Cell Cycle Phase (% of cells), G1 (BT145 cells; [5]): 33.6% and 37% and 36.8%
- Cell Cycle Phase (% of cells), G2 (BT145 cells; [5]): 48.8% and 41.5% and 48%
- Cell Cycle Phase (% of cells), S (BT145 cells; [5]): 16.4% and 20.3% and 13.8%
- Mean proportion of cells in G1 (BT145 cells; QST, 24 hours): 36%
- Mean proportion of cells in G2 (BT145 cells; QST, 24 hours): 46%
- Mean proportion of cells in S (BT145 cells; QST, 24 hours): 17%
- Cell viability (fraction of DMSO control) ([3]; QST 10 nM (log[nM] 1)): 0.6995 and 0.7125
- Cell viability (fraction of DMSO control) ([3]; QST 25 nM (log[nM] 1.39794)): 0.5597 and 0.5623
- Cell viability (fraction of DMSO control) ([3]; QST 50 nM (log[nM] 1.69897)): 0.4582 and 0.5002
- Cell viability (fraction of DMSO control) ([3]; QST 100 nM (log[nM] 2)): 0.3562 and 0.4332
- sensitivity of primary human astrocytes to QST compared with GSCs ([3]; in vitro dose response assay): equally sensitive
- viability at 3 days, 10 nM ([4]; QST 10 nM (log[nM] 1)): 60.9%
- viability at 3 days, 25 nM ([4]; QST 25 nM (log[nM] 1.39794)): 46.7%
- viability at 3 days, 50 nM ([4]; QST 50 nM (log[nM] 1.69897)): 36.5%
- viability at 3 days, 100 nM ([4]; QST 100 nM (log[nM] 2)): 27.2%
